For 13 molecules, IC50, CC50 and melting point results are on record in paper PMC9641905, “Synthesis, biological evaluation and molecular docking of new triphenylamine-linked pyridine, thiazole and pyrazole analogues as anticancer agents” (BMC Chemistry, 2022).

One series has as its system MDA-MB-231 cell line. Briefly: MTT cytotoxicity assay, MDA-MB-231 breast cancer cell line. The series is classed as cell-based, human. The following applies: breast cancer cells. Here is the method:
(§1) The lung cancer A-549 and the breast cancer MDA-MB-231 cell lines were obtained from the viscera Tissue Culture Unit. The cells were spread in Dulbecco’s modified Eagle’s medium (DMEM) supplemented with 10% heat-inactivated fetal bovine serum, 1% L-glutamine, HEPES buffer, and 50 µg/mL gentamycin. All cells were maintained at 37 °C in a humidified atmosphere with 5% CO2 and were sub-cultured two times a week.
(§2) The MTT assay was applied to determine the cytotoxicity of pyridine and thiazole derivatives. MTT or 3-(4,5-dimethylthiazol-2-yl)-2,5-diphenyltetrazolium bromide was purchased from Serva, Germany. The cell lines were introduced into 96-well plates at a cell concentration of 1 × 10^4 cells per well in 100 μL of complete medium (tests were done in duplicates). These plates were incubated for 24 h, 5% CO2, at 37 °C for settle down and adhesion. Control cells were incubated without the test sample and with or without DMSO. After incubation, different concentrations of samples were added after the period of incubation (48 h), media were inhaled, and the MTT solution was added to all wells for full 30 min. Briefly, the media was extracted from the 96 well plates and exchanged with 100 µl of fresh culture RPMI 1640 medium without phenol red then 10 µl of the 12 mM MTT stock solution (5 mg of MTT in 1 mL of PBS) to all wells inclusive the untreated controls. The 96 well plates were incubated at 37 °C and 5% CO2 for 4 h. An 85 µl aliquot of the media was taken away from the wells, added 50 µl of DMSO to all wells and mixed thoroughly, and incubated at 37 °C for 10 min. The absorbance of plates was measured after shaking on a microplate reader (TECAN, Inc.), using a test wavelength of 590 nm. Measure the optical density by the microplate reader to calculate the number of viable cells and the percentage of viability according to [(ODt/ODc)] × 100% where ODt (optical density of cells treated) with the tested sample and ODc (optical density of control cells).
(§3) In the vitro cytotoxic activity of triphenylamine-based pyridine, thiazole, pyrazole and/or isoxazole derivatives was estimated against two cell lines as lung cancer (A-549) and mammary gland breast cancer cell line (MDA-MB-231) by using MTT assay according to reported method. Cisplatin is one of the common alkylation agents was selected to be the reference drug. From graphic plots of the dose response curve determine the 50% inhibitory concentration (IC50) (Fig. 2).

For series [1], the system named is human lung fibroblast noncancerous cell line (MRC-5). In words: MTT cytotoxicity assay against normal cells (MRC-5). The settings on record: normal human lung fibroblasts. The series is classed as cell-based. Here is the method:
as §2
(§4) The MTT assay was applied to determine the cytotoxicity of pyridine and thiazole derivatives against normal cell line to explore the selectivity of the tested compounds against tumor cells. The cytotoxicity was tested against human lung fibroblast noncancerous cell line (MRC-5).

A further series has as its system A-549 cell line. In words: MTT cytotoxicity assay, A-549 lung cancer cell line. The settings on record: lung cancer cells. Type of series: cell-based, human. On the procedure:
as §1, §2, §3
Background: Formazan colour is commonly taken as a measure of viable cells.

A short description of series [2]: MTT cytotoxicity assay against normal cells (MRC-5). The series is classed as cell-based. The following applies: MRC-5 cells (normal lung fibroblasts), normal human lung fibroblasts, read-out: CC50 MRC-5 cell line. Here is the method: as §2, §4

As usually defined, the IC50 is the concentration needed to halve the response being measured. A high value points to a need for much substance. A word on the CC50: it is the concentration giving 50% cytotoxicity. Take “6-Amino-1-(p-anisyl)-4-(4-(diphenylamino)phenyl)-2-oxo-1,2-dihydropyridine-3,5-dicarbonitrile [4c]”: the figures for the IC50 in the series with MDA-MB-231 cell line (48 h) and in the series with A-549 cell line (48 h) were 193 nM and 154 nM, respectively. For the same molecule, the cytotoxic concentration (CC50) in series [1] was 864 nM.

For `N#Cc1c(-c2ccc(N(c3ccccc3)c3ccccc3)cc2)c(C#N)c(=O)n(-c2ccccc2)c1N` [4a, 6-Amino-4-(4-(diphenylamino)phenyl)-2-oxo-1-phenyl-1,2-dihydropyridine-3,5-dicarbonitrile], the IC50 with MDA-MB-231 cell line (Homo sapiens, MDA-MB-231, 48 h) turned out to be 55 nM; with A-549 cell line (Homo sapiens, A549, 48 h), 46.9 nM. Also, in series [2], the 50% cytotoxic concentration (CC50) at 48 h stood at 137 nM.

Take `Cc1ccc(-n2c(N)c(C#N)c(-c3ccc(N(c4ccccc4)c4ccccc4)cc3)c(C#N)c2=O)cc1` [4b, 6-Amino-4-(4-(diphenylamino)phenyl)-2-oxo-1-(p-tolyl)-1,2-dihydropyridine-3,5-dicarbonitrile]: the IC50 with MDA-MB-231 cell line (Homo sapiens, MDA-MB-231, 48 h) turned out to be 10.3 nM; in the series on A-549 cell line (Homo sapiens, A549, 48 h) it was 8.03 nM. In addition, in series [2], the CC50 at 48 h came to 97.1 nM.

For the molecule `CN(C)c1ccc(-n2c(N)c(C#N)c(-c3ccc(N(c4ccccc4)c4ccccc4)cc3)c(C#N)c2=O)cc1` [4d, 6-Amino-1-(4-(dimethylamino)phenyl)-4-(4-(diphenylamino)phenyl)-2-oxo-1,2-dihydropyridine-3,5-dicarbonitrile], the CC50 at 48 h in series [2] is 1100 nM. In the series on A-549 cell line (Homo sapiens, A549, 48 h), this molecule showed an IC50 of 233 nM.

Consider `N#Cc1c(-c2ccc(N(c3ccccc3)c3ccccc3)cc2)c(C#N)c(=O)n(-c2ccc([N+](=O)[O-])cc2)c1N` [4e, 6-Amino-4-(4-(diphenylamino)phenyl)-1-(4-nitrophenyl)-2-oxo-1,2-dihydropyridine-3,5-dicarbonitrile], for which the IC50 with MDA-MB-231 cell line (Homo sapiens, MDA-MB-231, 48 h) worked out at 14.7 nM; in the series with A-549 cell line (Homo sapiens, A549, 48 h), 9.5 nM. Besides, the CC50 at 48 h in series [2] is 82.3 nM.

With `CCN(CC)c1ccc(NC(=O)C(C#N)=c2sc(=O)c(=Cc3ccc(N(c4ccccc4)c4ccccc4)cc3)n2-c2ccccc2)cc1` [6a, 2-Cyano-N-(4-(diethylamino)phenyl)-2-(4-(4-(diphenylamino)benzylidene)-5-oxo-3-phenylthiazolidin-2-ylidene)acetamide], the IC50 came out at 172 nM in the series with MDA-MB-231 cell line (Homo sapiens, MDA-MB-231, 48 h) and 141 nM in the series with A-549 cell line (Homo sapiens, A549, 48 h). In series [2], the half-maximal cytotoxic concentration (CC50) at 48 h was found to be 985 nM.

As for `CN(C)c1ccc(NC(=O)C(C#N)=c2sc(=O)c(=Cc3ccc(N(c4ccccc4)c4ccccc4)cc3)n2-c2ccccc2)cc1` [6b, 2-Cyano-N-(4-(dimethylamino)phenyl)-2-(4-(4-(diphenylamino)benzylidene)-5-oxo-3-phenylthiazolidin-2-ylidene)acetamide], the IC50 with MDA-MB-231 cell line (Homo sapiens, MDA-MB-231, 48 h) worked out at 123 nM; in the series on A-549 cell line (Homo sapiens, A549, 48 h), 79.2 nM. In addition, the CC50 at 48 h in series [2] was 768 nM.

Consider `Cc1ccc(NC(=O)C(C#N)=c2sc(=O)c(=Cc3ccc(N(c4ccccc4)c4ccccc4)cc3)n2-c2ccccc2)cc1` [6c, 2-Cyano-2-(4-(4-(diphenylamino)benzylidene)-5-oxo-3-phenylthiazolidin-2-ylidene)-N-(p-tolyl)acetamide], for which the half-inhibitory concentration (IC50) worked out at 51 nM in the series with MDA-MB-231 cell line (Homo sapiens, MDA-MB-231, 48 h) and 48.5 nM with A-549 cell line (Homo sapiens, A549, 48 h). In addition, the CC50 at 48 h in series [2] came out at 143 nM.

Turning to `COc1ccc(NC(=O)C(C#N)=c2sc(=O)c(=Cc3ccc(N(c4ccccc4)c4ccccc4)cc3)n2-c2ccccc2)cc1` [6d, 2-Cyano-2-(4-(4-(diphenylamino)benzylidene)-5-oxo-3-phenylthiazolidin-2-ylidene)-N-(4-methoxyphenyl)acetamide], the IC50 came to 139 nM in the series on MDA-MB-231 cell line (Homo sapiens, MDA-MB-231, 48 h) and 95.4 nM with A-549 cell line (Homo sapiens, A549, 48 h). Further, the half-maximal cytotoxic concentration (CC50) at 48 h in series [2] came to 683 nM.

With `N.N.[Cl][Pt][Cl]` [Cisplatin, reference compound], the IC50 in the series with MDA-MB-231 cell line (48 h) came to 12 nM; with A-549 cell line (48 h), 24.4 nM.

One may read the melting point as the temperature of the solid-liquid transition. Consider `CCOC(=O)C=c1sc(=Cc2ccc(N(c3ccccc3)c3ccccc3)cc2)c(=O)n1-c1ccccc1` [compound 8, ethyl-2-(5-(4-(diphenylamino)benzylidene)-4-oxo-3-phenylthiazolidin-2-ylidene)acetate], for which the melting point was in the range of 250 to 252 °C. Moreover, in the series on MDA-MB-231 cell line (Homo sapiens, MDA-MB-231, 48 h), the half-maximal inhibitory concentration (IC50) turned out to be 136 nM. Further, the CC50 at 48 h in series [2] is 1100 nM. The molecule further displayed an IC50 with A-549 cell line (Homo sapiens, A549, 48 h) of 219 nM.

For `CC1=NN(c2ccccc2)C(=O)C1=Cc1ccc(N(c2ccccc2)c2ccccc2)cc1` [compound 9, 4-(4-(Diphenylamino)benzylidene)-5-methyl-2-phenyl-2,4-dihydro-3H-pyrazol-3-one], the melting point is 182 to 184 °C. The midpoint of inhibition in the series on MDA-MB-231 cell line (Homo sapiens, MDA-MB-231, 48 h), the IC50, lay at 268 nM. Also, in series [2], the CC50 at 48 h worked out at 1300 nM. In addition, the IC50 in the series with A-549 cell line (Homo sapiens, A549, 48 h) was 127 nM.

As to `O=C1ON=C(c2ccccc2)C1=Cc1ccc(N(c2ccccc2)c2ccccc2)cc1` [compound 10, 4-(4-(Diphenylamino)benzylidene)-3-phenylisoxazol-5(4H)-one], the melting point lay within 218 to 220 °C. For the same molecule, in the series with MDA-MB-231 cell line (Homo sapiens, MDA-MB-231, 48 h), half-maximal inhibition (IC50) required 111 nM. In series [2], the CC50 at 48 h was found to be 973 nM. In addition, the IC50 in the series on A-549 cell line (Homo sapiens, A549, 48 h) was 128 nM.
